Test results reported in US20200080053A1, “USE OF PEPTIDE COMPOUNDS FOR PROMOTING SURVIVAL, GROWTH AND CELL DIFFERENTIATION” (Axoltis Pharma, priority 2016, published 2020).
“Also recorded” adds a separate entry of the source.

Legend:
[1] = test system: human mesenchymal stem cells (hMSC); assay: Neural differentiation of hMSCs: immunocytochemical analysis (Nestin, MAP-2); type: cell-based; conditions: bFGF
Experimental: To investigate the neural differentiation capacity of the peptides, 25 cm^2 flasks and 12-wells culture plates were coated with sterile aqueous solutions of either NX210 or NS640 at a concentration of 80 μg/cm^2. Coatings were carried out at 37° C. and 5% CO2 over-night prior to cell plating.
On Day 0 (D0), hMSC were seeded at a concentration of 3,000 cells/cm^2 in pre-coated 25 cm^2 flasks or 12-well culture plates in complete medium and culture was placed at 37° C. in a humid environment and under 5% CO2. After 24h, medium was changed and replaced by different combinations of media containing either: MEMalpha—bFGF 12.5 ng/mL—FBS 2%—P/S 0.1%; MEMalpha—bFGF 12.5 ng/mL—FBS 10%—P/S 0.1%; MEMalpha—FBS 2%—P/S 0.1% (control condition); MEMalpha—FBS 10%—P/S 0.1% (control condition). The cells were placed at 37° C. in a humid environment and under 5% CO2, and medium was changed twice a week. On Day 8, medium was replaced by medium containing ATRA in the place of bFGF and thus was changed with: MEMalpha—ATRA […]—FBS 2%—P/S 0.1%; MEMalpha—ATRA 20 μM—FBS 10%—P/S 0.1%; MEMalpha—FBS 2%—P/S 0.1% (control condition); MEMalpha—FBS 10%—P/S 0.1% (control condition). The cells were placed at 37° C. in a humid environment and under 5% CO2. Medium was changed twice a week. On Day 15 (D15), cells were harvested by trypsinization for mRNA extraction or fixed immunocytochemical analysis.
Assessment of differentiation was performed by gene expression after extraction of mRNA at various time point (DO, D1, D8 and D15), and immunocytochemical analysis performed at the end of the culture period (D15).
Immunocytochemical analyses were carried out on cells fixed in 4% paraformaldehyde and using standard protocols. After blocking with Triton 1×0.1%/BSA 5% during 30 min, cells were incubated with antibodies directed against Nestin (Millipore) or MAP-2 (Sigma) overnight at +4° C. After washing, appropriate FITC or Cyandidine-5 labelled secondary antibody are added. Nuclei were counterstained with Hoescht 33258 (Sigma). Obervations were performed using Leica TCS LSI system.

[2] = test system: 129S v/J embryonic stem cells (ESCs); assay: Early differentiation of ESCs on gelatin without LIF and serum, nestin/MAP2 immunocytochemistry; type: cell-based
Experimental: 129S v/J embryonic stem cells (ESCs) were seeded at a concentration of 0.7×10^6 cells in 35 mm diameter Petri dishes covered with a gelatin substrate.
The culture medium used was the Glasgow's minimal essential medium (G-MEM) supplemented with N2 supplement.
To enable differentiation of ESCs into neuroepithelial progenitors, the culture medium was deprived of LIF (Leukemia Inhibitory factor) because LIF is a key factor of the self-renewal of ESCs.
The various tests were carried out in absence of serum because serum limits the possibility to specifically orientate the differentiation and it could hide, or at least reduce, the effects of the peptide compound of the invention.
ESCs were grown in the culture medium as defined above with addition of 0.5 mg/ml NX210 (SEQ ID NO: 6) at day 1, 3 and 5.
Then, cultures were fixed with 4% paraformaldehyde after 7 days of culture.
To analyze the differentiation of ESCs into neuroepithelial progenitors and into differentiated neurons, the various cell types were visualized by immunocytochemistry: • using a primary anti-nestin antibody (nestin=intermediate filament protein), specific of neuroepithelial progenitors, and • using a primary anti-MAP2 antibody (MAP2=microtubule associated protein 2), specific of dendrites, and thus specific of differentiated neurons.
The total number of cells was measured by labelling nuclei using bisbenzimide/Hoechst 33342, a fluorescent dye with an affinity for DNA that is commonly used to color nuclei in blue.

[3] = 2% FBS, with or without peptide coating (FIG. 8)

Substance: W-S-G-W-S-S-C-S-R-S-C-G (WSGWSSCSRSCG) [NX210]
- MAP-2 marker expression (immunocytochemistry staining) [1, 3]: stronger staining
- Nestine marker expression (immunocytochemistry staining) [1, 3]: stronger staining
- MAP-2 protein presence ([1]; 10% FBS, peptide coating (FIG. 8)): makes possible to observe MAP-2 protein presence
- Nestine expression (staining intensity) ([1]; 10% FBS, with or without peptide coating, compared to the control condition (FIG. 8)): maximized
- population of ESCs expressing the nestin protein ([2]; 0.5 mg/ml NX210, 7 days of culture on gelatin, compared to culture in the absence of NX210): reduced; also recorded: few Nestin+cells
- cells expressing the MAP2 protein (differentiated neurons) ([2]; 0.5 mg/ml NX210, 7 days of culture, no MAP2 cells in the absence of NX210): some cells expressing the MAP2 protein
- orientation of ESCs to the neuronal differentiation pathway ([2]; 0.5 mg/ml NX210, in terms of kinetics): induces a preferential orientation of ESCs to the neuronal differentiation pathway
- MAP2+ cells in ESCs (FIG. 2) ([2]; after 5 days in the presence of 0.5 mg/ml NX210, compared to control culture): only observed in presence of NX210
